Results from paper PMC7587962, “Evaluation of Cytotoxicity and α-Glucosidase Inhibitory Activity of Amide and Polyamino-Derivatives of Lupane Triterpenoids” (Molecules, 2020).
Read-outs that look alike come from different tables or passages of the source.

Key:
HOP-92 = test: NCI-60 SRB screen: non-small cell lung cancer HOP-92; format: cell-based, human; settings: HOP-92
SK-MEL-28 = test: NCI-60 SRB screen: melanoma SK-MEL-28; format: cell-based, human; settings: SK-MEL-28
RXF 393 = test: NCI-60 SRB screen: renal cancer RXF 393; format: cell-based, human; settings: RXF 393
OVCAR-4 = test: NCI-60 SRB screen: ovarian cancer OVCAR-4; format: cell-based; settings: Homo sapiens; OVCAR-4; five concentrations, 48 h, SRB; read-out: GI50
UO-31 = test: NCI-60 SRB screen: renal cancer UO-31; format: cell-based, human; settings: UO-31
Melanoma subpanel = test: NCI-60 screen, subpanel Melanoma
TK-10 = test: NCI-60 SRB screen: renal cancer TK-10; format: cell-based, human; settings: TK-10
HCC-2998 = test: NCI-60 SRB screen: colon cancer HCC-2998; format: cell-based, human; settings: HCC-2998
IGROV1 = test: NCI-60 SRB screen: ovarian cancer IGROV1; format: cell-based, human; settings: IGROV1
COLO 205 = test: NCI-60 SRB screen: colon cancer COLO 205; format: cell-based, human; settings: COLO 205
NCI-H522 = test: NCI-60 SRB screen: non-small cell lung cancer NCI-H522; format: cell-based, human; settings: NCI-H522
Ovarian Cancer subpanel = test: NCI-60 screen, subpanel Ovarian Cancer
HL-60(TB) = test: NCI-60 SRB screen: leukemia HL-60(TB); format: cell-based; settings: Homo sapiens, 48 h, HL-60(TB)
Colon Cancer subpanel = test: NCI-60 screen, subpanel Colon Cancer
HOP-62 = test: NCI-60 SRB screen: non-small cell lung cancer HOP-62; format: cell-based, human; settings: HOP-62
PC-3 = test: NCI-60 SRB screen: prostate cancer PC-3; format: cell-based, human; settings: PC-3
RPMI-8226 = test: NCI-60 SRB screen: leukemia RPMI-8226; format: cell-based; settings: Homo sapiens, 48 h, RPMI-8226
Breast cancer subpanel = test: NCI-60 screen, subpanel Breast cancer
SK-MEL-2 = test: NCI-60 SRB screen: melanoma SK-MEL-2; format: cell-based, human; settings: SK-MEL-2
NSCL cancer subpanel = test: NCI-60 screen, subpanel NSCL cancer
MDA-MB-468 = test: NCI-60 SRB screen: breast cancer MDA-MB-468; format: cell-based, human
NCI-H460 = test: NCI-60 SRB screen: non-small cell lung cancer NCI-H460; format: cell-based; settings: Homo sapiens, 48 h, NCI-H460
SF-539 = test: NCI-60 SRB screen: CNS cancer SF-539; format: cell-based, human; settings: SF-539
A498 = test: NCI-60 SRB screen: renal cancer A498; format: cell-based, human; settings: A498
OVCAR-5 = test: NCI-60 SRB screen: ovarian cancer OVCAR-5; format: cell-based, human; settings: OVCAR-5
SR = test: NCI-60 SRB screen: leukemia SR; format: cell-based; settings: Homo sapiens, 48 h
T-47D = test: NCI-60 SRB screen: breast cancer T-47D; format: cell-based, human; settings: T-47D
CNS cancer subpanel = test: NCI-60 screen, subpanel CNS cancer
[1] = test system: 60 human tumor cell lines; settings: single dose 10 µM
[2] = test system: 60 human tumor cell lines; test: cells
SK-OV-3 = test: NCI-60 SRB screen: ovarian cancer SK-OV-3; format: cell-based, human; settings: SK-OV-3
SF-268 = test: NCI-60 SRB screen: CNS cancer SF-268; format: cell-based, human; settings: SF-268
NCI-H322M = test: NCI-60 SRB screen: non-small cell lung cancer NCI-H322M; format: cell-based, human
SNB-75 = test: NCI-60 SRB screen: CNS cancer SNB-75; format: cell-based, human; settings: SNB-75
[3] = Homo sapiens, five concentrations, 48 h, SRB, read-out: GI50
[4] = single dose 10 µM, read-out: Percentage Cell Growth
[5] = five concentrations, SRB, read-out: GI50

C=C(C)[C@@H]1CC[C@]2(C(=O)NCCNCCNCCN)CC[C@]3(C)[C@H](CC[C@@H]4[C@@]5(C)CCC(=O)C(C)(C)[C@@H]5CC[C@]43C)[C@@H]12 [Compound 11]
Percentage Cell Growth (HOP-92; single dose 10 µM): −65.19%
GI50 (HOP-92; [3]): 2.93 µM
GI50 (SK-MEL-28; [3]): 8.49 µM
Percentage Cell Growth (SK-MEL-28; single dose 10 µM): −73.91%
GI50 (RXF 393; [3]): 5.6 µM
Percentage Cell Growth (RXF 393; single dose 10 µM): −71.88%
GI50 (OVCAR-4): 7.39 µM
GI50 (UO-31; [3]): 6.85 µM
Percentage Cell Growth (UO-31; single dose 10 µM): −96.35%
MID b, average sensitivity of all cell line of particular subpanel (Melanoma subpanel): 12.84 µM
Selectivity, ratio MID a: MID b (Melanoma subpanel): 0.71
GI50 (TK-10; [3]): 10.1 µM
Percentage Cell Growth (TK-10; single dose 10 µM): −77.68%
Percentage Cell Growth (HCC-2998; single dose 10 µM): −90.04%
GI50 (HCC-2998; [3]): 7.16 µM
GI50 (IGROV1; Homo sapiens, IGROV-1, five concentrations, 48 h, SRB, read-out: GI50): 6.42 µM
Percentage Cell Growth (IGROV1; single dose 10 µM): −84.81%
Percentage Cell Growth (COLO 205; single dose 10 µM): −47.48%
GI50 (COLO 205; [3]): 8.74 µM
GI50 (NCI-H522; [3]): 8.72 µM
Percentage Cell Growth (NCI-H522; single dose 10 µM): −69.70%
MID b, average sensitivity of all cell line of particular subpanel (Ovarian Cancer subpanel): 8.24 µM
Selectivity, ratio MID a: MID b (Ovarian Cancer subpanel): 1.11
activity at 10 µM (HL-60(TB); [4]): -35.6%
GI50 (HL-60(TB); [5]): 8.88 µM
MID b, average sensitivity of all cell line of particular subpanel (Colon Cancer subpanel): 7.68 µM
Selectivity, ratio MID a: MID b (Colon Cancer subpanel): 1.19
Percentage Cell Growth (HOP-62; single dose 10 µM): 43.09%
GI50 (HOP-62; [3]): 7.91 µM
GI50 (PC-3; [3]): 6.26 µM
Percentage Cell Growth (PC-3; single dose 10 µM): −24.64%
activity at 10 µM (RPMI-8226; [4]): -30.7%
GI50 (RPMI-8226; [5]): 6.78 µM
MID b, average sensitivity of all cell line of particular subpanel (Breast cancer subpanel): 8.04 µM
Selectivity, ratio MID a: MID b (Breast cancer subpanel): 1.14
GI50 (SK-MEL-2; [3]): > 50 µM
Percentage Cell Growth (SK-MEL-2; single dose 10 µM): 56.36%
MID b, average sensitivity of all cell line of particular subpanel (NSCL cancer subpanel): 7.58 µM
Selectivity, ratio MID a: MID b (NSCL cancer subpanel): 1.21
GI50 (MDA-MB-468; [3]): 8.09 µM
Percentage Cell Growth (MDA-MB-468; single dose 10 µM): −49.06%
activity at 10 µM (NCI-H460; [4]): -90.9%
GI50 (NCI-H460; [5]): 9.4 µM
GI50 (SF-539; [3]): 7.53 µM
Percentage Cell Growth (SF-539; single dose 10 µM): −92.71%
Percentage Cell Growth (A498; single dose 10 µM): 80.81%
GI50 (A498; [3]): 42.6 µM
GI50 (OVCAR-5; [3]): 8.78 µM
Percentage Cell Growth (OVCAR-5; single dose 10 µM): −44.11%
activity at 10 µM (SR; [4]): 4.96%
GI50 (SR; [5]): 5.91 µM
GI50 (T-47D; Homo sapiens, T47D, five concentrations, 48 h, SRB, read-out: GI50): 7.52 µM
Percentage Cell Growth (T-47D; single dose 10 µM): −4.36%
MID b, average sensitivity of all cell line of particular subpanel (CNS cancer subpanel): 7.76 µM
Selectivity, ratio MID a: MID b (CNS cancer subpanel): 1.18
cancer cell lethality, range of percentage growth ([1]; cell lines with negative growth): −4.36% to −96.35%
cases of cancer cell lethality ([1]; number of cell lines): 50
GI50 ([2]; read-out: GI50 ranges against all panels of NCI60): 5.6 to 50 µM
GI50 ([2]; read-out: MID a, average sensitivity of all cell line (GI50-MID)): 9.17 µM
GI50 (SK-OV-3; [3]): 10.6 µM
Percentage Cell Growth (SK-OV-3; single dose 10 µM): 70.49%
GI50 (SF-268; [3]): 7.53 µM
Percentage Cell Growth (SF-268; single dose 10 µM): −38.68%
GI50 (NCI-H322M; [3]): 7.32 µM
Percentage Cell Growth (NCI-H322M; single dose 10 µM): −81.08%
GI50 (SNB-75; [3]): 6.26 µM
Percentage Cell Growth (SNB-75; single dose 10 µM): −41.55%
